In article PMC4488483, “Reversible Oxidation of a Conserved Methionine in the Nuclear Export Sequence Determines Subcellular Distribution and Activity of the Fungal Nitrate Regulator NirA” (PLoS Genetics, 2015):

Experiments:
FmoB [1] = target: T1, FmoB (Aspergillus nidulans, UniProt Q5B5S0); assay: UV-visible absorbance spectrum of FAD saturated enzyme; assay type: binding; settings: purified recombinant FmoB
T1 construct: gene ANIA_04110; complete fmoB gene from cDNA, expressed in E. coli, HIS-Select and size exclusion purified, ~60 kDa on SDS-PAGE, FAD saturated
T1 sequence (Q5B5S0 1-492): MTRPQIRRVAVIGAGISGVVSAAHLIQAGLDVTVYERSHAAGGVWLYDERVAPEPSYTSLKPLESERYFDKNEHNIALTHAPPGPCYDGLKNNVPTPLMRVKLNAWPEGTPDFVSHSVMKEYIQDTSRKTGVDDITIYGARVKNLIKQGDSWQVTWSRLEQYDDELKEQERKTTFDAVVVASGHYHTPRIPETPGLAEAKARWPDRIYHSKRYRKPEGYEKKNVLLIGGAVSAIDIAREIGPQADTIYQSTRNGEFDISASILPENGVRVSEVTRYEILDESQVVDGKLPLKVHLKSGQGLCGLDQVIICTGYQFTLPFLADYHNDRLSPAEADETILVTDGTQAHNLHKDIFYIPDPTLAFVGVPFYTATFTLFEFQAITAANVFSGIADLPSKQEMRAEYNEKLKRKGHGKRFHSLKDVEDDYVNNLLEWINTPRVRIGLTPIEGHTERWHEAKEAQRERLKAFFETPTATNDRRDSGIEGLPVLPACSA

FmoB [2] = target: T1, FmoB; assay: NADPH consumption, absorbance at […] nm; assay type: biochemical; settings: 2 uM FmoB, 200 uM NADPH, 2 mM substrate
FmoB [3] = target: T1, FmoB; assay: HPLC of L-methionine sulfoxide formed; assay type: biochemical; settings: NADPH-dependent; up to 5 mM methionine; low rate

SMILES: Cc1cc2nc3c(=O)[nH]c(=O)nc-3n(C[C@H](O)[C@H](O)[C@H](O)COP(=O)(O)OP(=O)(O)OC[C@H]3O[C@@H](n4cnc5c(N)ncnc54)[C@H](O)[C@@H]3O)c2cc1C [FAD]
- UV-visible absorbance spectrum of FAD saturated enzyme (FmoB [1]): An UV-visible absorbance spectra of FAD saturated FmoB is shown as inset

SMILES: N[C@@H](CS)C(=O)O [cysteine]
- NADPH consumption, absorbance at 340 nm (FmoB [2]): free cysteine, dithiothreitol (DTT) or β-mercaptoethanol were favourable substrates for FmoB

SMILES: CSCC[C@H](N)C(=O)O [L-methionine]
- HPLC of L-methionine sulfoxide formed (FmoB [3]): it is able to convert free methionine to the sulfoxide form
